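Here, GI50 denotes the concentration required for 50% inhibition of growth. At the TGI there is no net growth.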
Columns and labels:
Assay in all cases: DTP human tumour cell line panel, 384-well format
786-0 renal = system: 786-0 renal
A498 renal = system: A498 renal
A549 NSCLC = system: A549 NSCLC
ACHN renal = system: ACHN renal
BT-549 breast = system: BT-549 breast
CAKI-1 renal = system: CAKI-1 renal
CCRF-CEM leukemia = system: CCRF-CEM leukemia
COLO 205 colon = system: COLO 205 colon
DU-145 prostate = system: DU-145 prostate
EKVX NSCLC = system: EKVX NSCLC
HCC-2998 colon = system: HCC-2998 colon
HCT-116 colon = system: HCT-116 colon
HCT-15 colon = system: HCT-15 colon
HL-60(TB) leukemia = system: HL-60(TB) leukemia
HOP-62 NSCLC = system: HOP-62 NSCLC
HOP-92 NSCLC = system: HOP-92 NSCLC
HS 578T breast = system: HS 578T breast
HT29 colon = system: HT29 colon
IGROV1 ovarian = system: IGROV1 ovarian
K-562 leukemia = system: K-562 leukemia
KM12 colon = system: KM12 colon
LOX IMVI melanoma = system: LOX IMVI melanoma
M14 melanoma = system: M14 melanoma
MALME-3M melanoma = system: MALME-3M melanoma
MCF7 breast = system: MCF7 breast
MDA-MB-231 breast = system: MDA-MB-231 breast
MDA-MB-435 melanoma = system: MDA-MB-435 melanoma
MDA-MB-468 breast = system: MDA-MB-468 breast
MOLT-4 leukemia = system: MOLT-4 leukemia
NCI-H226 lung = system: NCI-H226 lung
NCI-H23 lung = system: NCI-H23 lung
NCI-H322M lung = system: NCI-H322M lung
NCI-H460 NSCLC = system: NCI-H460 NSCLC
NCI-H522 lung = system: NCI-H522 lung
NCI/ADR-RES ovarian = system: NCI/ADR-RES ovarian
OVCAR-3 ovarian = system: OVCAR-3 ovarian
OVCAR-4 ovarian = system: OVCAR-4 ovarian
OVCAR-8 ovarian = system: OVCAR-8 ovarian
PC-3 prostate = system: PC-3 prostate
RPMI-8226 leukemia = system: RPMI-8226 leukemia
RXF 393 renal = system: RXF 393 renal
SF-268 CNS = system: SF-268 CNS
SF-295 CNS = system: SF-295 CNS
SF-539 CNS = system: SF-539 CNS
SK-MEL-28 melanoma = system: SK-MEL-28 melanoma
SK-MEL-5 melanoma = system: SK-MEL-5 melanoma
SK-OV-3 ovarian = system: SK-OV-3 ovarian
SN12C renal = system: SN12C renal
SNB-19 CNS = system: SNB-19 CNS
SNB-75 CNS = system: SNB-75 CNS
SW-620 colon = system: SW-620 colon
T-47D breast = system: T-47D breast
TK-10 renal = system: TK-10 renal
U251 glioblastoma = system: U251 glioblastoma
UACC-257 melanoma = system: UACC-257 melanoma
UACC-62 melanoma = system: UACC-62 melanoma
UO-31 renal = system: UO-31 renal

Compound Cc1cnc(NC(=O)Nc2cc(Br)c(C)cc2OC[C@@H]2CNCCO2)cn1 has a GI50 ([…]-0 renal) of 101 nM, a TGI (786-0 renal) of 427 nM and a GI50 (A498 renal) of 25.5 nM. For the same compound, the TGI (A498 renal) was 81.8 nM, the GI50 (A549 NSCLC) was 706 nM and the TGI (A549 NSCLC) was 14300 nM. It also gave a GI50 (ACHN renal) of 58.5 nM, a TGI (ACHN renal) of 254 nM and a GI50 (BT-549 breast) of 84.9 nM. It also gave a TGI (BT-549 breast) of 258 nM, a GI50 (CAKI-1 renal) of 469 nM and a TGI (CAKI-1 renal) of 2860 nM. The GI50 (CCRF-CEM leukemia) was 100 nM, the TGI (CCRF-CEM leukemia) was 219 nM and the GI50 (COLO 205 colon) was 1690 nM. For the same compound, the TGI (COLO 205 colon) was 4720 nM, the GI50 (DU-145 prostate) was 347 nM and the TGI (DU-145 prostate) was 1490 nM. For the same compound, the GI50 (EKVX NSCLC) was 436 nM, the TGI (EKVX NSCLC) was 11400 nM and the GI50 (HCC-2998 colon) was 41.4 nM. The TGI (HCC-2998 colon) was 180 nM, the GI50 (HCT-116 colon) was 977 nM and the TGI (HCT-116 colon) was 2300 nM. It also gave a GI50 (HCT-15 colon) of 303 nM, a TGI (HCT-15 colon) of 1130 nM and a GI50 (HL-60(TB) leukemia) of 47.8 nM. It also gave a TGI (HL-60(TB) leukemia) of 174 nM, a GI50 (HOP-62 NSCLC) of 143 nM and a TGI (HOP-62 NSCLC) of 512 nM. It also gave a GI50 (HOP-92 NSCLC) of 106 nM, a TGI (HOP-92 NSCLC) of 851 nM and a GI50 (HS 578T breast) of 52.8 nM. It also gave a TGI (HS 578T breast) of 245 nM, a GI50 (HT29 colon) of 326 nM and a TGI (HT29 colon) of 1120 nM. For the same compound, the GI50 (IGROV1 ovarian) was 354 nM, the TGI (IGROV1 ovarian) was 12200 nM and the GI50 (K-562 leukemia) was 157 nM. The TGI (K-562 leukemia) was 323 nM, the GI50 (KM12 colon) was 72.3 nM and the TGI (KM12 colon) was 510 nM. It also gave a GI50 (LOX IMVI melanoma) of 1140 nM, a TGI (LOX IMVI melanoma) of 2390 nM and a GI50 (M14 melanoma) of 27.1 nM. It also gave a TGI (M14 melanoma) of 83.3 nM, a GI50 (MALME-3M melanoma) of 135 nM and a TGI (MALME-3M melanoma) of 1340 nM. For the same compound, the GI50 (MCF7 breast) was 56.3 nM, the TGI (MCF7 breast) was 1680 nM and the GI50 (MDA-MB-231 breast) was 608 nM. For the same compound, the TGI (MDA-MB-231 breast) was 6180 nM, the GI50 (MDA-MB-435 melanoma) was 194 nM and the TGI (MDA-MB-435 melanoma) was 389 nM. For the same compound, the GI50 (MDA-MB-468 breast) was 485 nM, the TGI (MDA-MB-468 breast) was 2660 nM and the GI50 (MOLT-4 leukemia) was 131 nM. It also gave a TGI (MOLT-4 leukemia) of 262 nM, a GI50 (NCI-H226 lung) of 5040 nM and a TGI (NCI-H226 lung) of 18100 nM. For the same compound, the GI50 (NCI-H23 lung) was 56 nM, the TGI (NCI-H23 lung) was 244 nM and the GI50 (NCI-H322M lung) was 195 nM. It also gave a TGI (NCI-H322M lung) of 1830 nM, a GI50 (NCI-H460 NSCLC) of 290 nM and a TGI (NCI-H460 NSCLC) of 1430 nM. The GI50 (NCI-H522 lung) was 1940 nM, the TGI (NCI-H522 lung) was 5840 nM and the GI50 (NCI/ADR-RES ovarian) was 254 nM. It also gave a TGI (NCI/ADR-RES ovarian) of 701 nM, a GI50 (OVCAR-3 ovarian) of 188 nM and a TGI (OVCAR-3 ovarian) of 781 nM. The GI50 (OVCAR-4 ovarian) was 163 nM, the TGI (OVCAR-4 ovarian) was 1390 nM and the GI50 (OVCAR-8 ovarian) was 153 nM. For the same compound, the TGI (OVCAR-8 ovarian) was 443 nM, the GI50 (PC-3 prostate) was 1240 nM and the TGI (PC-3 prostate) was 14200 nM. The GI50 (RPMI-8226 leukemia) was 146 nM, the TGI (RPMI-8226 leukemia) was 317 nM and the GI50 (RXF 393 renal) was 36.3 nM. For the same compound, the TGI (RXF 393 renal) was 165 nM, the GI50 (SF-268 CNS) was 368 nM and the TGI (SF-268 CNS) was 2940 nM. The GI50 (SF-295 CNS) was 42.2 nM, the TGI (SF-295 CNS) was 210 nM and the GI50 (SF-539 CNS) was 54.3 nM. It also gave a TGI (SF-539 CNS) of 201 nM, a GI50 (SK-MEL-28 melanoma) of 1050 nM and a TGI (SK-MEL-28 melanoma) of 2230 nM. It also gave a GI50 (SK-MEL-5 melanoma) of 329 nM, a TGI (SK-MEL-5 melanoma) of 1350 nM and a GI50 (SK-OV-3 ovarian) of 157 nM. It also gave a TGI (SK-OV-3 ovarian) of 412 nM, a GI50 (SN12C renal) of 1800 nM and a TGI (SN12C renal) of 6090 nM. For the same compound, the GI50 (SNB-19 CNS) was 482 nM, the TGI (SNB-19 CNS) was 4850 nM and the GI50 (SNB-75 CNS) was 369 nM. For the same compound, the TGI (SNB-75 CNS) was 2950 nM, the GI50 (SW-620 colon) was 693 nM and the TGI (SW-620 colon) was 2050 nM. The GI50 (T-47D breast) was 1860 nM, the TGI (T-47D breast) was 3630 nM and the GI50 (TK-10 renal) was 106 nM. It also gave a TGI (TK-10 renal) of 366 nM, a GI50 (U251 glioblastoma) of 497 nM and a TGI (U251 glioblastoma) of 1730 nM. The GI50 (UACC-257 melanoma) was 1420 nM, the TGI (UACC-257 melanoma) was 2730 nM and the GI50 (UACC-62 melanoma) was 284 nM. It also gave a TGI (UACC-62 melanoma) of 1640 nM, a GI50 (UO-31 renal) of 264 nM and a TGI (UO-31 renal) of 1850 nM.
